Test results: article PMC11507521, “Pyrimidine Derivatives as Selective COX-2 Inhibitors with Anti-Inflammatory and Antioxidant Properties” (International Journal of Molecular Sciences, 2024)

Target: T1, human serum albumin (HSA) (Homo sapiens, UniProt P02768)
T1 construct: gene ALB; serum albumin in HEPES pH 7.4
Test: UV-Vis titration, Benesi-Hildebrand
Assay type: binding
Conditions: HEPES pH 7.4, 25 °C, DMSO < 1%
Source text: UV-Vis titration, Benesi-Hildebrand on human serum albumin (HSA)

T1 sequence (P02768 25-609): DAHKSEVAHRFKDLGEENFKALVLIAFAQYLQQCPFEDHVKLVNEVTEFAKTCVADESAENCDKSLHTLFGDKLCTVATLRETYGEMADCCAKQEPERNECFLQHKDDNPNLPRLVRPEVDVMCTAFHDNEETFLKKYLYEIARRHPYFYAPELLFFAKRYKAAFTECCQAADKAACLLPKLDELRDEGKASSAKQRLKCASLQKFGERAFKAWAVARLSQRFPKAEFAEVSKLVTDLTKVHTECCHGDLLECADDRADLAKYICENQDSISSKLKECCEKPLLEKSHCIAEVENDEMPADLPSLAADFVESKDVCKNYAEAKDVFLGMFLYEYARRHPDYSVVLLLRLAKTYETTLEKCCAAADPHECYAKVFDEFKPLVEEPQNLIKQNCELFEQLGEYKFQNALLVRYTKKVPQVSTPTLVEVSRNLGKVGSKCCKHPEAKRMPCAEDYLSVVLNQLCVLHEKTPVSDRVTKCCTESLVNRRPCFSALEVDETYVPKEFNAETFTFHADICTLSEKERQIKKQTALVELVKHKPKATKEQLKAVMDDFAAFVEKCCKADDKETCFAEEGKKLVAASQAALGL

| SMILES | binding constant (Kb) to HSA | binding constant (Kb) |
| --- | --- | --- |
| COc1ccc2c(c1)CCCC2=NNc1cc(NCCN(C)C)ncn1 [L2] | 4.54 × 10^5 dm^3/mol | – |
| COc1ccc2c(c1)CCCC2=NNc1cc(NCCCN(C)C)ncn1 [L4] | – | 6.82 × 10^4 dm^3/mol |
| CCN(CC)CCNc1cc(NN=C2CCCc3cc(OC)ccc32)ncn1 [L1] | 9.92 × 10^4 dm^3/mol | – |
